Data as given in patent US20110123483A1, “HMGB1 FOR CANCER TREATMENT” (DEUTSCHES KREBSFORSCHUNGSZENTRUM, priority 2009, published 2011).

How the values were obtained:
Assay type in all cases: cell-based, human
[1] = tested on: U251MG glioblastoma cells; experiment: Cytotoxicity assay, cell survival by crystal violet staining
Method: 20,000 U251MG glioblastoma cells or human astrocytic cells (ScienCell) were plated into 96-well plates. After 24 h cells were treated with rhHMGB1 (Sigma Aldrich) or rat recombinant HMGB1 (generously provided by Angelika Bierhaus, Heidelberg, Germany), and TRAIL (for 24 h) or Temozolomide (for 72 h) alone or in combination, respectively. […] Cell proliferation was assessed by seeding 50,000 U251 MG cells in 6 cm culture plates and treatment with rhHMGB1, followed by counting the cells in a Neubauer chamber at day 0, 2, 4 and 5.

[2] = tested on: U251 MG cells; experiment: ROS measurement by DCF fluorescence and FACS analysis; details: co-treatment with rhHMGB1 (FIG. 3A)
Method: For measurement of reactive oxygen species (ROS) and mitochondrial membrane potential (MMP) 1.5×10^6 U251 MG cells were seeded in 6 cm plates, treated with 40 nM rhHMGB1 for 24 h and incubated with the fluorescent DiOC6 (3,3′-dihexyloxacarbocyanine iodide, 40 nmol/ll, Sigma Chemical Co., St. Louis, Mo.) or with the fluorescent H2DCF-DA (dichlorodihydrofluorescein diacetate, 10 μM, Invitrogen) for 1 h at 37° C., respectively. The cells were trypsinized and centrifuged at 2,000 rpm for 5 min at 4° C. The supernatant was discarded and the pellet was washed 2× with sterile Dulbecco's PBS containing 0.1% fetal calf serum on ice and again centrifuged at 2,000 rpm for 5 min at 4° C. The pellet was resuspended in 500 μl sterile Dulbecco's PBS on ice. Oxidation of H2DCF to DCF by ROS and DiOC6 accumulation in mitochondria were measured immediately at FL-1 by flow cytometry using a FACScalibur (Beckton Dickinson, Heidelberg, Germany). Cell cycle was determined by measurement of priopidiumiodide (PI)-uptake of the cells according to standard procedures. Briefly, the cells were harvested and washed twice in sterile Dulbecco's PBS on ice, spun down at 2,000 rpm for 5 min at 4° C. and fixed with 70% ethanol for 30 min at 4° C. Contaminating RNA was eliminated by treatment with 100 μg/ml of RNase A, then 50 μg/ml PI was added and DNA content was measured immediately at FI-2. […]

[3] = tested on: JNK1/2; experiment: Western blot analysis of JNK1/2 phosphorylation; details: NAC, rhHMGB1 40 nM (FIG. 3E)
Method: The U251 MG tumor cells were lysed in lysis buffer containing 20 mmol/L Tris-HCl (pH 7.4), 137 mmol/L NaCl, 10% (v/v) glycerine, 1% Triton X-100, 2 mmol/L EDTA, 100 mmol/L phenylmethylsulfonyl fluoride, and protease inhibitors (Complete mini; Roche Molecular Biochemicals). For the detection of phosphoprotein levels, 10 mmol/L NaPPi, 50 mmol/L NaF, and 20 mmol/L NaVO4 were added to the lysis buffer. After 15 min incubation on ice, the lysates were centrifuged at 14,000×g for 10 min. The total protein concentration of the lysates was measured using the Bradford assay (Bio-Rad). Soluble protein (25-100 μg per lane) was separated on 10% to 15% polyacrylamide gels and blotted onto nitrocellulose by standard procedures. […]

[4] = tested on: pseudo rho zero cells; experiment: Survival of pseudo rho zero cells by crystal violet analysis; details: TRAIL 100 ng/ml, 24 h (FIG. 5)
Method: U251 glioblastoma cells and non-immortalized human astrocytic cells (ScienCell, USA) were maintained in DMEM (Life Technologies) containing 10% FCS, 4.5 g/L glucose, glutamine, 110 mg/L sodium pyruvate, and 1% penicillin-streptomycin (Life Technologies) and in astrocyte medium (ScienCell) containing 2% FBS (fetal bovine serum) and 1% penicillin-streptomycin at 37° C. and 5% CO2. For the generation of pseudo rho zero cells (0.0), U251 MG cells were treated with low dose (250 ng/ml) ethidiumbromide for 3 months. The cells were supplemented with DMEM (10% FCS, 1% P/S) containing 50 μg/ml L-pyruvate and 5 mg/ml uridine (King and Attardi, 1989).
20,000 U251MG glioblastoma cells or human astrocytic cells (ScienCell) were plated into 96-well plates. After 24 h cells were treated with rhHMGB1 (Sigma Aldrich) or rat recombinant HMGB1 (generously provided by Angelika Bierhaus, Heidelberg, Germany), and TRAIL (for 24 h) or Temozolomide (for 72 h) alone or in combination, respectively. Cell survival was measured by crystal violet staining as described previously (Gdynia et al., 2007). Cell proliferation was assessed by seeding 50,000 U251 MG cells in 6 cm culture plates and treatment with rhHMGB1, followed by counting the cells in a Neubauer chamber at day 0, 2, 4 and 5.

[5] = tested on: U251 MG cells; experiment: Subcellular fractionation and Western blot: cytochrome c release, caspase 3 cleavage
Method: The U251 MG tumor cells were lysed in lysis buffer containing 20 mmol/L Tris-HCl (pH 7.4), 137 mmol/L NaCl, 10% (v/v) glycerine, 1% Triton X-100, 2 mmol/L EDTA, 100 mmol/L phenylmethylsulfonyl fluoride, and protease inhibitors (Complete mini; Roche Molecular Biochemicals). For the detection of phosphoprotein levels, 10 mmol/L NaPPi, 50 mmol/L NaF, and 20 mmol/L NaVO4 were added to the lysis buffer. After 15 min incubation on ice, the lysates were centrifuged at 14,000×g for 10 min. The total protein concentration of the lysates was measured using the Bradford assay (Bio-Rad). Soluble protein (25-100 μg per lane) was separated on 10% to 15% polyacrylamide gels and blotted onto nitrocellulose by standard procedures. The membranes were washed, incubated with primary antibody as indicated: mouse anti-human caspase-3 (1:500, Imgenex, San Diego, Calif.); polyclonal rabbit anti-human phosphorylated p44/42 mitogen-activated protein kinase and polyclonal rabbit anti-human phosphorylated stress-activated protein kinase/JNK (1:1,000, Cell Signaling Technology, Inc.); polyclonal anti-rabbit JNK 54/46 (1:1,000, Cell Signaling Technology, Inc.); polyclonal rabbit anti-human IkBalpha (1:500, Santa Cruz Biotechnology, Inc.); mouse monoclonal anti-human BNIP3 (1:10,000, R&D Systems, Inc.); mouse monoclonal anti-human phosphorylated-histone H2A.X (Upstate, Inc.); mouse monoclonal anti-human cytochrome c (1:100, BD Biosciences Pharmingen GmbH, Heidelberg, Germany); mouse anti-human cytochrome c oxidase complex IV (1:100, Molecular Probes, Invitrogen, Karlsruhe, Germany); polyclonal rabbit antimalondialdehyde (1:250, Calbiochem, Merck, Darmstadt, Germany) and mouse monoclonal antibodies to β-tubulin or β-actin (1:3,000, Sigma Chemical Co., St. Louis, Mo.), washed, and incubated with the appropriate secondary antibody (1:3,000; horseradish peroxidase-conjugated, Bio-Rad). Bound antibodies were visualized using an enhanced chemiluminescence detection system (GE-Healthcare, Uppsala, Sweden).
Enrichment of mitochondrial fractions was performed using the ApoAlert Cell Fractionation Kit (Clontech, Mountain View, Calif.) as described previously (Gdynia et al., 2008). Briefly, after centrifugation and several washing steps, the cell pellet was resuspended in ice-cold 1× Fractionation Buffer Mix containing protease inhibitors (Complete mini; Roche Molecular Biochemicals, Indianapolis, Ind.) and 1 mM 1,4-Dithio-DL-threitol solution (DTT). After 10 min incubation on ice, cells were homogenized with a dounce tissue grinder. Efficiency of homogenization was controlled by microscopy. The homogenate was centrifuged at 700×g for 10 min at 4° C. and the resulting supernatant at 10,000×g for 25 min at 4° C. […]

## CC(=O)N[C@@H](CS)C(=O)O [NAC, reference compound]
[1]; NAC 1 mM, 48 h co-treatment with rhHMGB1 (FIG. 3B)
  effect on rhHMGB1-induced cell death: substantially inhibited
[2]
  effect on rhHMGB1-induced ROS generation: partially prevented
[3]
  effect on JNK activation after rhHMGB1 treatment: prevented the activation of JNK

## O=c1ccn([C@@H]2O[C@H](CO)[C@@H](O)[C@H]2O)c(=O)[nH]1 [uridine, reference compound]
[1]; uridine 5 mg/ml in culture medium, 48 h (FIG. 3F)
  effect on rhHMGB1-induced cell death: substantially inhibited

B1: TRAIL: death ligand TRAIL, positive control for cytotoxicity (protein, UniProt P50591 1-281, looked up)
Tumor necrosis factor ligand …: MAMMEVQGGPSLGQTCVLIVIFTVLLQSLCVAVTYVYFTNELKQMQDKYSKSGIACFLKEDDSYWDPNDEESMNSPCWQVKWQLRQLVRKMILRTSEETISTVQEKQQNISPLVRERGPQRVAAHITGTRGRSNTLSSPNSKNEKALGRKINSWESSRSGHSFLSNLHLRNGELVIHEKGFYYIYSQTYFRFQEEIKENTKNDKQMVQYIYKYTSYPDPILLMKSARNSCWSKDAEYGLYSIYQGGIFELKENDRIFVSVTNEHLIDMDHEASFFGAFLVG
[4]
  apoptotic signalling in pseudo rho zero cells: still intact
[5]; TRAIL 200 ng/ml, 3 h (FIG. 6)
  release of cytochrome c into the cytosolic fraction: detected
[5]; TRAIL treatment (FIG. 6)
  cleavage of caspase 3: observed
